From ChEMBL document CHEMBL3044587, “Synthesis of B-ring substituted flavones and evaluation of their antitumor and antioxidant activities” (Med Chem Res, 2013)
Values after ≈ are worked out from the molar mass of the structure shown. Where a name gives a salt, the structure may show the parent alone.

Experiments:
Type in all cases: functional
[1] = tested on: Liver microsome; assay: Antioxidant activity in Wistar albino Rattus norvegicus (rat) liver microsomes assessed as inhibition of lipid peroxidation after 1 hr by TBARS method
[2] = tested on: MOLT-4; assay: Growth inhibition of Homo sapiens (human) MOLT4 cells at 100 uM after 48 hr by SRB assay; details: MOLT-4, 48 h, read-out: GI
[3] = tested on: MCF7; assay: Growth inhibition of Homo sapiens (human) MCF7 cells at 100 uM after 48 hr by SRB assay; details: MCF7, 48 h, read-out: GI
[4] = tested on: HepG2; assay: Growth inhibition of Homo sapiens (human) HepG2 cells at 100 uM after 48 hr by SRB assay; details: HepG2, 48 h, read-out: GI
[5] = tested on: MOLT-4; assay: Cytotoxicity against Homo sapiens (human) MOLT4 cells after 48 hr by SRB assay; details: MOLT-4, 48 h
[6] = tested on: MCF7; assay: Cytotoxicity against Homo sapiens (human) MCF7 cells after 48 hr by SRB assay; details: MCF7, 48 h
[7] = tested on: HepG2; assay: Cytotoxicity against Homo sapiens (human) HepG2 cells after 48 hr by SRB assay; details: HepG2, 48 h

| Structure (SMILES) | IC50 [1] [µg/mL] | inhibition of growth at 100 µM [2] [%] | inhibition of growth at 100 µM [3] [%] | inhibition of growth at 100 µM [4] [%] | GI50 [5] [µM] | GI50 [6] [µM] | GI50 [7] [µM] |
| --- | --- | --- | --- | --- | --- | --- | --- |
| O=c1cc(-c2ccc(Cl)cc2)oc2ccccc12 | 60 (≈ 234 µM) | < 50 | < 50 | < 50 | – | – | – |
| O=c1cc(-c2ccc(Cl)c([N+](=O)[O-])c2)oc2ccccc12 | 80 (≈ 265 µM) | – | – | – | 50.7 | 40.9 | 93.8 |
| O=c1cc(-c2cccc([N+](=O)[O-])c2)oc2ccccc12 | 60 (≈ 225 µM) | – | – | – | 36 | 31 | 94.9 |
| COc1ccc(-c2cc(=O)c3ccccc3o2)cc1OC [3',4'-DIMETHOXYFLAVONE] | 40 (≈ 142 µM) | < 50 | < 50 | < 50 | – | – | – |
| COc1cc(OC)cc(-c2cc(=O)c3ccccc3o2)c1 [3',5'-DIMETHOXYFLAVONE] | 40 (≈ 142 µM) | – | – | – | < 0.1 | < 0.1 | 58.8 |
| COc1ccc(-c2cc(=O)c3ccccc3o2)cc1 [4'-METHOXYFLAVONE] | 60 (≈ 238 µM) | – | – | < 50 | 99.2 | 61.8 | – |
| O=c1cc(-c2ccccc2)oc2cc(O)cc(O)c12 [CHRYSIN] | 60 (≈ 236 µM) | – | – | < 50 | 58.6 | 69 | – |
| COc1cccc2c1C(=O)c1c(O)c3c(c(O)c1C2=O)C[C@@](O)(C(=O)CO)C[C@@H]3O[C@H]1C[C@H](N)[C@H](O)[C@H](C)O1 [DOXORUBICIN HYDROCHLORIDE] | – | – | – | – | < 0.1 | < 0.1 | < 0.1 |
| O=c1cc(-c2ccccc2)oc2ccccc12 [FLAVONE] | 100 (≈ 450 µM) | < 50 | – | – | – | 69.3 | 50.6 |
| O=c1c(O)c(-c2ccc(O)c(O)c2)oc2cc(O)cc(O)c12 [QUERCETIN] | 20 (≈ 66.2 µM) | – | – | – | – | – | – |
